The first experiment deals with cynomolgus monkeys (Macaca fascicularis). Put plainly: Intravenous glucose tolerance test (IVGTT) in cynomolgus monkeys. It counts as in vivo. The note with it: fasted, test article 6 mg/mL IV bolus 1-6 min before IV glucose 0.5 g/kg, plasma insulin 0-60 min, FIG. 1. On the procedure: Intravenous Glucose Tolerance Test (IVGTT) in Cynomolgus Monkeys
Aged ([…]) cynomolgus monkeys (Macaca fascicularis; N=4-5/test article) were fasted overnight and anesthetized with ketamine prior to the intravenous glucose tolerance test (IVGTT). The test articles were formulated at 6 mg/mL in vehicle (5% polyethylene glycol 400: 95% (12% (w/v) sulfobutylether-β-cyclodextrin in deionized water) (v/v)]) and administered by intravenous bolus into a peripheral vein 1-6 minutes prior to the IVGTT. The IVGTT was initiated by administration of an IV bolus of glucose (0.5 g/kg as a 50% glucose solution). Blood samples were collected from a peripheral vein 0, 1, 3, 5, 10, 20, 40 and 60 minutes upon completion of the IV bolus glucose injection. The blood samples were collected directly into potassium ethylene diamine tetra-acetic acid tubes and plasma separated by centrifugation at 2,500 g for 10 minutes within 30 minutes of collection. The plasma from all time points was analyzed for insulin concentrations (μU/mL) using a Cobas e411 Immunology analyzer. Insulin area-under-the-curve (AUC) was calculated using GraphPad Prism software (v 9).
Turning to `C[C@H]1C[C@@H](Oc2ccnc(COc3ccc(F)cc3C#N)n2)CCN1Cc1nc2ccc(C(=O)O)cc2n1C[C@@H]1CCO1` [Example 355, 2-(((2S,4S)-4-((2-((2-cyano-4-fluorophenoxy)methyl)pyrimidin-4-yl)oxy)-2-methylpiperidin-1-yl)methyl)-1-(((S)-oxetan-2-yl)methyl)-1H-benzo[d]imidazole-6-carboxylic acid], the “insulin secretion / insulin AUC” value is “an increase in insulin secretion was observed”.
On the same count and under the same terms, then `O=C(O)c1ccc2nc(CN3CCC(Oc4ccnc(COc5ccc(C(F)(F)F)cc5F)n4)CC3)n(C[C@@H]3CCO3)c2c1` [Compound 338], with “an increase in insulin secretion was observed”.
The same measure, in the same setting: then `CCn1cncc1Cn1c(CN2CCC(Oc3ccnc(COc4ccc(Cl)cc4Cl)c3)CC2)nc2ccc(C(=O)O)cc21` [Example 145, 2-((4-((2-((2,4-Dichlorophenoxy)methyl)pyridin-4-yl)oxy)piperidin-1-yl)methyl)-1-((1-ethyl-1H-imidazol-5-yl)methyl)-1H-benzo[d]imidazole-6-carboxylic acid], with “an increase in insulin secretion was observed”; and `O=C(O)c1ccc2nc(CN3CCC(Oc4ccnc(COc5ccc(F)cc5Cl)n4)CC3)n(C[C@@H]3CCO3)c2c1` [Compound 326], with “an increase in insulin secretion was observed”; and `CCn1cncc1Cn1c(CN2CCC(Oc3ccnc(COc4ccc(Cl)cc4C#N)c3)CC2)nc2ccc(C(=O)O)cc21` [Compound 171, 2-{[4-({2-[(4-chloro-2-cyanophenoxy)methyl]pyridin-4-yl}oxy)piperidin-1-yl]methyl}-1-[(1-ethyl-1H-imidazol-5-yl)methyl]-1H-1,3-benzodiazole-6-carboxylic acid], with “an increase in insulin secretion was observed”.
The same measure, in the same setting: then `C[C@H]1C[C@@H](Oc2ccnc(COc3ccc(C#N)cc3F)n2)CCN1Cc1nc2ccc(C(=O)O)cc2n1C[C@@H]1CCO1` [Example 313, 2-(((2S,4S)-4-((2-((4-Cyano-2-fluorophenoxy)methyl)pyrimidin-4-yl)oxy)-2-methylpiperidin-1-yl)methyl)-1-(((S)-oxetan-2-yl)methyl)-1H-benzo[d]imidazole-6-carboxylic acid], with “an increase in insulin secretion was observed”.

The next experiment deals with T1, human GLP-1 receptor (Homo sapiens, UniProt P43220).
T1 construct: expressed in transfected cells
T1 sequence (P43220 24-463): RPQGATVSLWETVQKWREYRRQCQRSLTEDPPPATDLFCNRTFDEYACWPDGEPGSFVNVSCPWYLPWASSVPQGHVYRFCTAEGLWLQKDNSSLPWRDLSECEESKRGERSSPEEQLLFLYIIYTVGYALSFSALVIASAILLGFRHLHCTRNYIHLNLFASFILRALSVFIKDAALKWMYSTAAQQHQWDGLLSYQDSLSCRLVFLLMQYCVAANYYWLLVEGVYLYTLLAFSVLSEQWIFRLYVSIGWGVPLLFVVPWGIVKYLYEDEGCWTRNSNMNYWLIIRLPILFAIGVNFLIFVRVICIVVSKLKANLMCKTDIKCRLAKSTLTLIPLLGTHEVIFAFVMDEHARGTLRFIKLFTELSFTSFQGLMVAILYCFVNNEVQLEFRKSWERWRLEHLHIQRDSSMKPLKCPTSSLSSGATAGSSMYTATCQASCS
Put plainly: GLP-1R cAMP assay (HitHunter cAMP accumulation). The note with it: CHO cells stably overexpressing human GLP-1 receptor, 30 min, 20-point dose response in triplicate. It counts as cell-based. On the procedure: CAMP accumulation was measured in Chinese hamster ovary (CHO) cells stably overexpressing the human GLP-1 receptor using the HitHunter CAMP Assay for Small Molecules Kit (Eurofins). Briefly, cells were grown in Ham's F12 Nutrient Mix with 10% FBS, and lifted with Cell Dissociation Buffer, Enzyme free, PBS based (ThermoFisher). […] The anti-cAMP antibody reagent was then added to cells at a 1:2 ratio and 5 μL of mixture was seeded in 384-well small volume white assay plates, at 10,000 cells/well. Cells were then treated with 50 nL compound using an ECHO 550 acoustic dispenser (Labcyte) in a 20-point dose response format in triplicate for 30 min. Cells were then lysed, and detection reagents added according to the manufacturer's protocol. After overnight incubation, luminescence was measured using a Perkin Elmer Envision plate reader. Dose response curves were analyzed using GraphPad Prism 9.0.
For `N#Cc1ccc(OCc2nccc(OC3C[C@H]4CC[C@@H](C3)N4Cc3nc4ccc(C(=O)O)cc4n3C[C@@H]3CCO3)n2)c(F)c1` (single isomer, unassigned) [Compound 488], the EC50 was 50 to 500 nM.
The same measure, in the same setting: under `O=C(O)c1ccc2nc(CN3CCC(Oc4cccc(COc5ccc(F)cc5Cl)c4)CC3)n(C[C@@H]3CCO3)c2c1` [Compound 207] stands < 50 nM.
Same read-out and setting: then `CCn1cncc1Cn1c(CN2CCC([C@@H](F)c3cccc(COc4ccc(Cl)cc4C#N)c3)CC2)nc2ccc(C(=O)O)cc21` (single isomer, unassigned) [Example 260], with < 50 nM; and `CN(c1ccnc(COc2ccc(Cl)cc2F)n1)C1CCN(Cc2nc3ccc(C(=O)O)cc3n2C[C@@H]2CCO2)CC1` [Compound 382, 2-{[4-({2-[(4-chloro-2-fluorophenoxy)methyl]pyrimidin-4-yl}(methyl)amino)piperidin-1-yl]methyl}-1-{[(2S)-oxetan-2-yl]methyl}-1H-1,3-benzodiazole-6-carboxylic acid], with < 50 nM; and `O=C(O)c1ccc2nc(CN3CCC(Nc4ccnc(COc5ccc(Cl)cc5F)n4)CC3)n(C[C@@H]3CCO3)c2c1` [Example 381, (S)-2-((4-((2-((4-Chloro-2-fluorophenoxy)methyl)pyrimidin-4-yl)amino)piperidin-1-yl)methyl)-1-(oxetan-2-ylmethyl)-1H-benzo[d]imidazole-6-carboxylic acid], with < 50 nM.
The same measure, in the same setting: under `CCn1cncc1Cn1c(CN2CCC([C@H](F)c3cccc(COc4ccc(Cl)cc4C#N)c3)CC2)nc2ccc(C(=O)O)cc21` (single isomer, unassigned) [Example 263] stands < 50 nM.

As usually defined, the EC50 is the midpoint of the concentration-response curve. Read a high EC50 as lower potency in that assay.

For the origin of these results see patent publication US12459929B2 (Carmot Therapeutics Inc., priority 2021, dated 2025).
